In patent US12440496B2, “Natriuretic peptide receptor a agonists useful for the treatment of cardiometabolic diseases, kidney disease and diabetes” (Merck Sharp & Dohme LLC, priority 2019, dated 2025):
pEC50: −log10 of the molar value. Counter-ions that a name gives are not always drawn.

The compounds below were run against T1, hNPRA (Homo sapiens, UniProt P16066) (assay: NPRA Functional Cell Assay (cGMP HTRF, NPRA HEK JumpIn stable cells)). Conditions: cGMP production, 1 hour at 37° C., 10-point dose response.
T1 construct: expressed in transfected cells
T1 sequence (P16066 33-1061): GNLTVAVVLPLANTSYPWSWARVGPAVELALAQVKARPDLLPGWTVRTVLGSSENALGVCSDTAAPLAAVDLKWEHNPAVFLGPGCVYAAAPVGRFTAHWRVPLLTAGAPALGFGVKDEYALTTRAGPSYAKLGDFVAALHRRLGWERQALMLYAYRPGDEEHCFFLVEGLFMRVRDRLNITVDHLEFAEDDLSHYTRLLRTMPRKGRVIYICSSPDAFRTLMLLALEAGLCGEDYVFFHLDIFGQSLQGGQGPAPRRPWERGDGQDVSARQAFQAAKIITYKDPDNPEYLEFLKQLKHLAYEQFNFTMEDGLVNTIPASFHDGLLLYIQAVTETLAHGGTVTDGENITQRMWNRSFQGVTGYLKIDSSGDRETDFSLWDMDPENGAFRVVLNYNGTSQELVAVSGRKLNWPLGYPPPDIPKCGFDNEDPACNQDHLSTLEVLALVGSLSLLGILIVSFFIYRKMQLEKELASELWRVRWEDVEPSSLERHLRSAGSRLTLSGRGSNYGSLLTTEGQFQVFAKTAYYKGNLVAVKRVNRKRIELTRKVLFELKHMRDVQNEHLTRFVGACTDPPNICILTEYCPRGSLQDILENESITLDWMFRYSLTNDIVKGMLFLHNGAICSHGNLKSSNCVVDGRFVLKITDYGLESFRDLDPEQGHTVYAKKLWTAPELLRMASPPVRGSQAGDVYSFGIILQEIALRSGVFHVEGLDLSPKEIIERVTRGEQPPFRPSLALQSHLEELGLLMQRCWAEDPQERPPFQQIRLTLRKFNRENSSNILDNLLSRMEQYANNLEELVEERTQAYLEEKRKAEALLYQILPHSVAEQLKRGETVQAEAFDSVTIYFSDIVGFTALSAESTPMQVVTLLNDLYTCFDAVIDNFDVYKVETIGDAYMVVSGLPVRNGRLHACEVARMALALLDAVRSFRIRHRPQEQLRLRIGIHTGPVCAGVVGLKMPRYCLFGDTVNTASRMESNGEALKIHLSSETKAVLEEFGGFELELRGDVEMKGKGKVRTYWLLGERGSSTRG
Format: cell-based
In short: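 cGMP HTRF read-out after 1 hour compound treatment at 37° C. of human NPRA-expressing HEK JumpIn cells, 1500 cells/well, in buffer with phosphodiesterase inhibitors IBMX and RO20 (100 uM each). Signal converted to [cGMP] by calibration curve; EC50s fitted by 4-parameter logistic; 50 nM h-ANP as positive response.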
`CC(C)(C)[C@H]1CCc2nc3sc(C(=O)N[C@H](CCN4CCC(O)CC4)c4ccc(Oc5ccc(O)cc5)nc4)nc3cc2C1` (racemic) [Example 194, ammonium; 4-[[5-[rac-(1R)-3-(4-hydroxy-1-piperidyl)-1-[[rac-(7S)-7-tert-butyl-5,6,7,8-tetrahydrothiazolo[5,4-b]quinoline-2-carbonyl]amino]propyl]-2-pyridyl]oxy]phenolate] was tested, and the pEC50 was 5.82.
`CC(C)(C)[C@H]1CCc2nc3sc(C(=O)N[C@H](CCN4CCC(O)CC4)c4ccc(-c5ccc(=O)[nH]c5)nc4)nc3cc2C1` (racemic) [Example 195, rac-(7S)-7-tert-butyl-N-[rac-(1R)-3-(4-hydroxy-1-piperidyl)-1-[6-(6-oxo-1H-pyridin-3-yl)-3-pyridyl]propyl]-5,6,7,8-tetrahydrothiazolo[5,4-b]quinoline-2-carboxamide] showed a pEC50 of 6.90.
Work on `CC(C)(C)[C@H]1CCc2nc3sc(C(=O)N[C@H](CCN4CCC(O)CC4)c4ccc(-c5cn[nH]c5)nc4)nc3cc2C1` (racemic) [Example 196, rac-(7S)-7-tert-butyl-N-[rac-(1R)-3-(4-hydroxy-1-piperidyl)-1-[6-(1H-pyrazol-4-yl)-3-pyridyl]propyl]-5,6,7,8-tetrahydrothiazolo[5,4-b]quinoline-2-carboxamide] yielded a pEC50 of 6.52.
For `CC(C)(C)[C@H]1CCc2nc3sc(C(=O)N[C@H](CCN4CCC(O)CC4)c4ccc(-c5csc(C(=O)O)c5)nc4)nc3cc2C1` (racemic) [Example 197, 4-[5-[rac-(1R)-3-(4-hydroxypiperidin-1-ium-1-yl)-1-[[rac-(7S)-7-tert-butyl-5,6,7,8-tetrahydrothiazolo[5,4-b]quinoline-2-carbonyl]amino]propyl]-2-pyridyl]thiophene-2-carboxylic acid; 2,2,2-trifluoroacetate], the pEC50 was 6.25.
With `CC(C)(C)[C@H]1CCc2nc3sc(C(=O)N[C@H](CCN4CCC(N)CC4)c4ccc(-c5cnc(O)c(F)c5)cc4)nc3cc2C1` (racemic) [Example 198, [1-[rac-(3R)-3-[4-(5-fluoro-6-hydroxy-3-pyridyl)phenyl]-3-[[rac-(7S)-7-tert-butyl-5,6,7,8-tetrahydrothiazolo[5,4-b]quinoline-2-carbonyl]amino]propyl]-4-piperidyl]ammonium; formate] the pEC50 was 6.66.
Work on `CC(C)(C)[C@H]1CCc2nc3sc(C(=O)N[C@H](CCN4CCC(O)(CN)CC4)c4ccc(-c5cnc(O)c(F)c5)cc4)nc3cc2C1` (racemic) [Example 199, [4-hydroxy-1-[rac-(3R)-3-[4-(5-fluoro-6-hydroxy-3-pyridyl)phenyl]-3-[[rac-(7S)-7-tert-butyl-5,6,7,8-tetrahydrothiazolo[5,4-b]quinoline-2-carbonyl]amino]propyl]-4-piperidyl]methylammonium; formate] yielded a pEC50 of 6.65.
For `CN(C)CC1(O)CCN(CC[C@@H](NC(=O)c2nc3cc4c(nc3s2)CC[C@H](C(C)(C)C)C4)c2ccc(-c3cnc(O)c(F)c3)cc2)CC1` (racemic) [Example 200, rac-(7S)-7-tert-butyl-N-[rac-(1R)-3-[4-[(dimethylamino)methyl]-4-hydroxy-piperidin-1-ium-1-yl]-1-[4-(5-fluoro-6-hydroxy-3-pyridyl)phenyl]propyl]-5,6,7,8-tetrahydrothiazolo[5,4-b]quinoline-2-carboxamide; formate], the pEC50 was 6.61.
For `CC(C)(C)[C@H]1CCc2nc3sc(C(=O)N[C@H](CCN4CC[C@@H](C(=O)O)[C@@H](F)C4)c4ccc(-c5cnc(O)c(F)c5)cc4)nc3cc2C1` (racemic) [Example 201, rac-(3R,4S)-3-fluoro-1-[rac-(3R)-3-[4-(5-fluoro-6-hydroxy-3-pyridyl)phenyl]-3-[[rac-(7S)-7-tert-butyl-5,6,7,8-tetrahydrothiazolo[5,4-b]quinoline-2-carbonyl]amino]propyl]piperidin-1-ium-4-carboxylic acid; formate], the pEC50 was 6.35.
In the case of `CCN(CC)CC[C@@H](NC(=O)c1nc2cc3c(nc2s1)CC[C@H](C(C)(C)C)C3)c1ccc(-c2cnc(O)c(F)c2)cc1` (racemic) [Example 202, diethyl-[rac-(3R)-3-[4-(5-fluoro-6-hydroxy-3-pyridyl)phenyl]-3-[[rac-(7S)-7-tert-butyl-5,6,7,8-tetrahydrothiazolo[5,4-b]quinoline-2-carbonyl]amino]propyl]ammonium; formate], the pEC50 was 6.29.
`CC(C)(C)[C@H]1CCc2nc3sc(C(=O)N[C@H](CCN4CC[C@H](C(=O)O)[C@@H](F)C4)c4ccc(-c5cnc(O)c(F)c5)cc4)nc3cc2C1` (racemic) [Example 203, rac-(3R,4R)-3-fluoro-1-[rac-(3R)-3-[4-(5-fluoro-6-hydroxy-3-pyridyl)phenyl]-3-[[rac-(7S)-7-tert-butyl-5,6,7,8-tetrahydrothiazolo[5,4-b]quinoline-2-carbonyl]amino]propyl]piperidin-1-ium-4-carboxylic acid; formate] gave a pEC50 of 5.93.
Compound `CC(C)(C)[C@H]1CCc2nc3sc(C(=O)N[C@H](CCN4CCC5OCCCC5C4)c4ccc(-c5cnc(O)c(F)c5)cc4)nc3cc2C1` (mixture of isomers) [Example 204, rac-(7S)-7-tert-butyl-N-[rac-(1R)-3-(3,4,4a,5,6,7,8,8a-octahydro-2H-pyrano[3,2-c]pyridin-6-ium-6-yl)-1-[4-(5-fluoro-6-hydroxy-3-pyridyl)phenyl]propyl]-5,6,7,8-tetrahydrothiazolo[5,4-b]quinoline-2-carboxamide; formate] has a pEC50 of 5.89.
For `CN(C)S(=O)(=O)Nc1ccc([C@@H](CCN2CCCOCC2)NC(=O)c2nc3cc4c(nc3s2)CC[C@H](C(C)(C)C)C4)cn1` (racemic) [Example 205, rac-(7S)-7-tert-butyl-N-[rac-(1R)-1-[6-(dimethylsulfamoylamino)-3-pyridyl]-3-(1,4-oxazepan-4-ium-4-yl)propyl]-5,6,7,8-tetrahydrothiazolo[5,4-b]quinoline-2-carboxamide; 2,2,2-trifluoroacetate], the pEC50 was 6.25.
Work on `CN(CCO)CC[C@@H](NC(=O)c1nc2cc3c(nc2s1)CC[C@H](C(C)(C)C)C3)c1ccc(NS(=O)(=O)N(C)C)nc1` (racemic) [Example 206, 2-hydroxyethyl-methyl-[rac-(3R)-3-[6-(dimethylsulfamoylamino)-3-pyridyl]-3-[[rac-(7S)-7-tert-butyl-5,6,7,8-tetrahydrothiazolo[5,4-b]quinoline-2-carbonyl]amino]propyl]ammonium; 2,2,2-trifluoroacetate] yielded a pEC50 of 6.17.
Work on `O=C(O)C(F)(F)F.[2H]C([2H])([2H])N(CC[C@@H](NC(=O)c1nc2cc3c(nc2s1)CC[C@H](C(C)(C)C)C3)c1ccc(NS(=O)(=O)N(C)C)nc1)C([2H])([2H])[2H]` (racemic) [Example 207, [rac-(3R)-3-[6-(dimethylsulfamoylamino)-3-pyridyl]-3-[[rac-(7S)-7-tert-butyl-5,6,7,8-tetrahydrothiazolo[5,4-b]quinoline-2-carbonyl]amino]propyl]-bis(trideuteriomethyl)ammonium; 2,2,2-trifluoroacetate] yielded a pEC50 of 6.17.
With `CN(C)S(=O)(=O)Nc1ccc([C@@H](CCN2CC=CCC2)NC(=O)c2nc3cc4c(nc3s2)CC[C@H](C(C)(C)C)C4)cn1` (racemic) [Example 208, rac-(7S)-7-tert-butyl-N-[rac-(1R)-1-[6-(dimethylsulfamoylamino)-3-pyridyl]-3-(1,2,3,6-tetrahydropyridin-1-ium-1-yl)propyl]-5,6,7,8-tetrahydrothiazolo[5,4-b]quinoline-2-carboxamide; 2,2,2-trifluoroacetate] the pEC50 was 6.15.
`CN(CC[C@@H](NC(=O)c1nc2cc3c(nc2s1)CC[C@H](C(C)(C)C)C3)c1ccc(NS(=O)(=O)N(C)C)nc1)CC1(O)CC1` (racemic) [Example 209, (1-hydroxycyclopropyl)methyl-methyl-[rac-(3R)-3-[6-(dimethylsulfamoylamino)-3-pyridyl]-3-[[rac-(7S)-7-tert-butyl-5,6,7,8-tetrahydrothiazolo[5,4-b]quinoline-2-carbonyl]amino]propyl]ammonium; 2,2,2-trifluoroacetate] gave a pEC50 of 6.13.
Compound `COCCN(C)CC[C@@H](NC(=O)c1nc2cc3c(nc2s1)CC[C@H](C(C)(C)C)C3)c1ccc(NS(=O)(=O)N(C)C)nc1` (racemic) [Example 210, 2-methoxyethyl-methyl-[rac-(3R)-3-[6-(dimethylsulfamoylamino)-3-pyridyl]-3-[rac-(7S)-7-tert-butyl-5,6,7,8-tetrahydrothiazolo[5,4-b]quinoline-2-carbonyl]amino]propyl]ammonium; 2,2,2-trifluoroacetate] has a pEC50 of 6.12.
